# Molecular target: T1, CCR9 (Homo sapiens, UniProt P51686)
# T1 sequence (P51686 1-369): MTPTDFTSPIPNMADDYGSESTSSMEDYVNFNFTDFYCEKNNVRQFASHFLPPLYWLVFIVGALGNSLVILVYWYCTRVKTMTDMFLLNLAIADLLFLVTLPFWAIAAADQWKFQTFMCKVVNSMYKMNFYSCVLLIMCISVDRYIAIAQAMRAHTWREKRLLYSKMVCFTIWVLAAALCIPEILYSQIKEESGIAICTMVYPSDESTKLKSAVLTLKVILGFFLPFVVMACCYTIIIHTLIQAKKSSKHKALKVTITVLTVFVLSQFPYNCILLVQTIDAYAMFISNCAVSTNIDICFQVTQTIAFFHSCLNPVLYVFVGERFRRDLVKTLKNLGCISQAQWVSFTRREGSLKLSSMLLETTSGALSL
# Experiment: FLIPR calcium flux assay using hCCR9 over expressed cells (TECK stimulation)
# Type: cell-based
# Parameters: expressed in transfected cells; host or cells: Chem-1 cells overexpressing hCCR9
# Details: Chem1-hCCR9 overexpressing cells; Ki determined from IC50 of TECK-induced intracellular calcium increase
# Method: Biological Activity: FLIPR Assay Using hCCR9 Over Expressed Cells
# A calcium flux assay was used to determine the ability of the compounds to interfere with the binding between CCR9 and its chemokine ligand (TECK) in Cheml-hCCR9 overexpressing cells. hCCR9 overexpressing cells were seeded (25,000 cells/well) into black Poly-D-Lysine coated clear bottom 96-well plates (BD Biosciences, Cat #356640) and incubated overnight at 37° C./5% CO2 in a humidified incubator. Media was aspirated and cells washed twice with 100 μL assay buffer (1×HBSS, 20 mM HEPES) containing 2.5 mM Probenecid. A 0.3× Fluo-4 NW calcium dye was prepared in assay buffer containing 5 mM Probenecid and stored in the dark. Each well was loaded with 100 μL of 0.3× Fluo-4 NW calcium dye and incubated at 37° C./5% CO2 for 60 minutes and then at room temperature for 30 minutes. A half-log serially diluted concentration response curve was prepared at a 3× final assay concentration for each compound (10 μM−0.1 nM final assay concentration) and 50 μL of the compound then transferred to the cells (150 μL final volume) for 60 minutes prior to stimulation (30 minutes at 37° C./5% CO2 and 30 minutes at room temperature). TECK was diluted to 4× its ECso in assay buffer (containing 0.1% [w/v] bovine serum albumin[BSA]) and 50 μL dispensed through the fluorometric imaging plate reader (FLIPR) instrument to stimulate the cells (200 μL final volume). The increase in intracellular calcium levels was measured with the FLIPR instrument. The potency of the compound as a CCR9 antagonist was calculated as an IC50 using GraphPad Prism software (variable slope four parameter). The Ki of the compound was determined from the IC50 values using the following equation.
# (§1) Ki calculation: IC50/1+(Agonist (TECK) conc. used in assay/EC50 of agonist (TECK) generated on day of experiment)
row,Ki [nM],Compound
1,456,"Cc1cc2nccc(NS(=O)(=O)c3ccc(-c4cnco4)cc3)n2n1 [Compound 1, N-(2-methylpyrazolo[1,5-a]pyrimidin-7-yl)-4-(oxazol-5-yl)benzenesulfonamide]"
2,1440,Cc1cc2nccc(NS(=O)(=O)c3ccc(C(C)(C)C)cc3)n2n1 [Compound 3]

# Molecular target: T1, CCR9
# Experiment: FLIPR calcium flux assay using MOLT4 cells (TECK stimulation)
# Type: cell-based
# Parameters: endogenous in cells; host or cells: MOLT4 (human T-cell line)
# Details: MOLT4 cells (a human T-cell line); Ki determined from IC50 of TECK-induced intracellular calcium increase
# Method: Biological Activity: FLIPR Assay Using MOLT4 Cells
# A calcium flux assay was used to determine the ability of the compounds to interfere with the binding between CCR9 and its chemokine ligand (TECK) in MOLT4 cells (a human T-cell line). MOLT4 cells were seeded (100,000 cells/well) in coming cell culture plates (Cat #3603) in assay buffer (lx HBSS, 20 mM HEPES) containing 2.5 mM Probenecid. The plate was centrifuged at 1200 rpm for 3 minutes and incubated at 37° C./5% CO2 for 2 hours. A 0.3× Fluo-4 NW calcium dye was prepared in assay buffer containing 5 mM Probenecid and stored in the dark. Each well was loaded with 25 μL of 0.3× Fluo-4 NW calcium dye and incubated at 37 C/5% CO2 for 60 minutes and then at room temperature for 30 minutes. A half-log serially diluted concentration response curve was prepared at a 4× concentration for each (10 μM-0.1 nM final assay concentration) and 25 μL of the compound then transferred to the cells (100 μL final volume) for 60 minutes prior to stimulation (30 minutes at 37° C./5% CO2 and 30 minutes at room temperature). TECK was diluted to 5× its EC50 in assay buffer (containing 0.1% [w/v] bovine serum albumin [BSA]) and 25 μL dispensed through the FLIPR instrument to stimulate the cells (125 μL final volume). The increased in intracellular calcium levels was measured with the FLIPR instrument. The potency of the compound as CCR9 antagonist was calculated as an IC50 using GraphPad Prism software (variable slope four parameter). The Ki of the compound was determined from the IC50 values using the following equation.
# as §1
row,Compound,Ki [nM]
1,Cc1cc2nccc(NS(=O)(=O)c3ccc(C(C)(C)C)cc3)n2n1 [Compound 3],315
2,Cc1cc2nccc(NS(=O)(=O)c3ccc(N4CCOCC4)cc3)n2n1 [Compound 22],4000
3,Cc1cc2nccc(NS(=O)(=O)c3ccc(C(F)(F)F)cc3)n2n1 [Compound 23],1700
4,Cc1cc2nccc(NS(=O)(=O)c3ccc(Br)cc3)n2n1 [Compound 28],6190
5,Cc1cc2nccc(NS(=O)(=O)c3cccc(C(C)(C)C)c3)n2n1 [Compound 32],1780
6,Cc1cc2nccc(NS(=O)(=O)c3ccc(OC(F)F)cc3)n2n1 [Compound 33],1210
7,O=S(=O)(Nc1ccnc2cc(C3CC3)nn12)c1cccc(C(F)(F)F)c1 [Compound 39],5890
8,O=S(=O)(Nc1ccnc2cc(C3CC3)nn12)c1ccc(C(F)(F)F)cc1 [Compound 41],1880
9,O=S(=O)(Nc1ccnc2cc(C3CC3)nn12)c1ccc(OC(F)(F)F)cc1 [Compound 42],1590
10,CC(C)(C)c1cccc(S(=O)(=O)Nc2ccnc3cc(C4CC4)nn23)c1 [Compound 44],1420
11,O=S(=O)(Nc1ccnc2cc(C3CC3)nn12)c1cccc(OC(F)(F)F)c1 [Compound 50],3750
12,O=S(=O)(Nc1ccnc2cc(C3CC3)nn12)c1ccc(OC(F)F)cc1 [Compound 51],3200
13,"CC(C)(C)c1ccc(S(=O)(=O)Nc2ccnc3cc(-c4cccnc4)nn23)cc1 [Compound 62, 4-(tert-butyl)-N-(2-(pyridin-3-yl)pyrazolo[1,5-a]pyrimidin-7-yl)benzenesulfonamide]",253
14,"CC(C)(C)c1ccc(S(=O)(=O)Nc2ccnc3cc(-c4ccc(C#N)cc4)nn23)cc1 [Compound 75, 4-(tert-butyl)-N-(2-(4-cyanophenyl)pyrazolo[1,5-a]pyrimidin-7-yl)benzenesulfonamide]",1550
15,CCc1cc2nccc(NS(=O)(=O)c3ccc(Cl)c(C(F)(F)F)c3)n2n1 [Compound 87],3230
16,O=S(=O)(Nc1ccnc2cc(-c3ccc(Cl)cc3)nn12)c1ccc(-c2cnco2)cc1 [Compound 90],1380
17,CC(C)c1cc2c(Cl)ccc(NS(=O)(=O)c3ccc(C(F)(F)F)cc3)n2n1 [Compound 101],492
18,CCc1cc2c(Cl)ccc(NS(=O)(=O)c3ccc(C(F)(F)F)cc3)n2n1 [Compound 106],177
19,O=S(=O)(Nc1ccc(Cl)c2cc(C3CC3)nn12)c1ccc(Cl)c(C(F)(F)F)c1 [Compound 108],456
20,O=S(=O)(Nc1ccc(Cl)c2cc(-c3cccnc3)nn12)c1ccc(F)cc1 [Compound 115],640
21,O=S(=O)(Nc1ccc(Cl)c2cc(-c3ccc[n+]([O-])c3)nn12)c1ccc(OC(F)(F)F)cc1 [Compound 116],1030
22,CC(C)(C#N)c1ccc(S(=O)(=O)Nc2ccc(Cl)c3cc(-c4cccnc4)nn23)cc1 [Compound 123],219
23,COc1cncc(-c2cc3c(Cl)ccc(NS(=O)(=O)c4ccc(C(C)(C)C)cc4)n3n2)c1 [Compound 127],192
24,CC(C)(C)c1ccc(S(=O)(=O)Nc2ccc(Cl)c3cc(-c4cncc(F)c4)nn23)cc1 [Compound 132],171
25,O=S(=O)(Nc1ccc(Cl)c2cc(-c3cncc(F)c3)nn12)c1ccc(C(F)(F)F)cc1 [Compound 133],182
26,"COc1ccc(NS(=O)(=O)c2ccc(C(C)(C)C)cc2)n2nc(-c3cccnc3)cc12 [Compound 173, 4-(tert-butyl)-N-(4-methoxy-2-(pyridin-3-yl)pyrazolo[1,5-a]pyridin-7-yl)benzenesulfonamide]",377
27,Cc1c(-c2cc3c(Cl)ccc(NS(=O)(=O)c4ccc(C(C)(C)C)cc4)n3n2)cnn1C [Compound 187],318
28,CC(C)(C)c1ccc(S(=O)(=O)Nc2ccc(Cl)c3cc(-c4cnccn4)nn23)cc1 [Compound 188],194
29,COc1ccc(-c2cc3c(Cl)ccc(NS(=O)(=O)c4ccc(C(C)(C)C)cc4)n3n2)cn1 [Compound 197],189
30,COc1ncccc1-c1cc2c(Cl)ccc(NS(=O)(=O)c3ccc(C(C)(C)C)cc3)n2n1 [Compound 201],192

# The next lines start with the values.
row,Ki [nM],Compound
1,19,"Cc1cc2nccc(NS(=O)(=O)c3ccc(-c4cnco4)cc3)n2n1 [Compound 1, N-(2-methylpyrazolo[1,5-a]pyrimidin-7-yl)-4-(oxazol-5-yl)benzenesulfonamide]"
2,92,O=S(=O)(Nc1ccc(Cl)c2cc(-c3cccnc3)nn12)c1ccc(OC(F)(F)F)cc1 [Compound 112]
3,73,COc1cc(-c2cc3c(Cl)ccc(NS(=O)(=O)c4ccc(C(C)C)cc4)n3n2)c[n+]([O-])c1 [Compound 126]
4,170,COc1cncc(-c2cc3c(Cl)ccc(NS(=O)(=O)c4ccc(C(F)(F)F)cc4)n3n2)c1 [Compound 128]
5,105,Cn1nccc1-c1cc2c(Cl)ccc(NS(=O)(=O)c3ccc(C(C)(C)C)cc3)n2n1 [Compound 143]
6,39,CC(C)(C)c1ccc(S(=O)(=O)Nc2ccc(C#N)c3cc(-c4ccncc4)nn23)cc1 [Compound 150]
7,76,"CC(C)(C)c1ccc(S(=O)(=O)Nc2ccc(C#N)c3cc(-c4cncc(C#N)c4)nn23)cc1 [Compound 154, 4-(tert-butyl)-N-(4-cyano-2-(5-cyanopyridin-3-yl)pyrazolo[1,5-a]pyridin-7-yl)benzenesulfonamide]"
8,170,COc1cncc(-c2cc3c(Br)ccc(NS(=O)(=O)c4ccc(C(C)(C)C)cc4)n3n2)c1 [Compound 160]
9,129,"Cn1cc(-c2cc3c(Br)ccc(NS(=O)(=O)c4ccc(C(C)(C)C)cc4)n3n2)cn1 [Compound 165, 4-(tert-butyl)-N-(4-bromo-2-(1-methyl-1H-pyrazol-4-yl)pyrazolo[1,5-a]pyridin-7-yl)benzenesulfonamide]"
10,27,"CC(C)(C)c1ccc(S(=O)(=O)Nc2ccc(C#N)c3cc(-c4cnco4)nn23)cc1 [Compound 170, 4-(tert-butyl)-N-(4-cyano-2-(oxazol-5-yl)pyrazolo[1,5-a]pyridin-7-yl)benzenesulfonamide]"
11,116,CCn1cc(-c2cc3c(Cl)ccc(NS(=O)(=O)c4ccc(C(C)(C)C)cc4)n3n2)cn1 [Compound 185]
12,81,CC(C)(C)c1ccc(S(=O)(=O)Nc2ccc(C#N)c3cc(-c4ccccn4)nn23)cc1 [Compound 193]
13,110,CCOc1ccc(-c2cc3c(Cl)ccc(NS(=O)(=O)c4ccc(C(C)(C)C)cc4)n3n2)cn1 [Compound 194]
14,34,CCOc1ccc(-c2cc3c(C#N)ccc(NS(=O)(=O)c4ccc(C(C)(C)C)cc4)n3n2)cn1 [Compound 195]
15,88,Cc1ccncc1-c1cc2c(Cl)ccc(NS(=O)(=O)c3ccc(C(C)(C)C)cc3)n2n1 [Compound 208]
16,149,COc1ccc(-c2cc3c(C#N)ccc(NS(=O)(=O)c4ccc(C(C)(C)C)cc4)n3n2)c(OC)n1 [Compound 210]
